{"source": "patent US20200123127A1", "about": "“REMOVAL OF SENESCENCE-ASSOCIATED MACROPHAGES” (EVERON BIOSCIENCES, INC., priority 2016, published 2020)", "tested_on": "B16 melanoma lung metastasis in C57BL/6 mice", "assay": "Senescence-enhanced B16 lung metastasis model", "assay_type": "in vivo, mouse", "details": "20 mg/kg intraperitoneally once a day for 5 consecutive days; irradiated (11 Gy) C57BL/6 mice", "excerpt": "FIG. 4. Efficacy of A1.1 analogs in the senescence-enhanced B16 metastasis model. (A) Quantification of metastatic nodules by H&E morphometric analysis, and the resulting reduction in tumor burden (%) compared to vehicle control. (B) Quantitation morphometric analysis of lungs excised from irradiated mice treated with analogs of A1.1 post-inoculation of B16 cell intravenously, along with quantitation of morphometric analysis, are provided. (C) In vitro testing of A1.1 and analogs against the growth and viability of B16 cells, as assessed by the resazurin viability assay after 72 hour exposure to compounds compared to non-treated controls.\nThe role of senescent cells in the promotion of metastatic potential of cancer cells has also been described [Patent WO 2013090645 A1; Campisi, J. (2015). Cancer and Aging: Rival Demons]. […] To test the efficacy of A1.1, irradiated (11 Gy followed by bone-marrow transplantation) and non-irradiated C57BL/6 mice received B16 melanoma cells via tail vein injection were subsequently (72 hours later) administered A1.1 (20 mg/kg) intraperitoneally once a day for 5 consecutive days.\nSynthesized analogs were also tested in vivo, to assess whether optimized structures are capable of showing activity against senescence-mediated B16 lung metastasis in irradiated mice (FIG. 4B). Analogs A1.1, A1.12, A1.13, A1.14, A1.15, and A1.6 were administered at 20 mg/kg intraperitoneally for 5 consecutive days. In addition to A1.1, treatment with analogs A1.12, A1.14 and A1.15 at 20 mg/kg reduced the metastatic burden in the lungs of irradiated mice by more than 2-fold."}
{"compound": "COc1ccc(C2C/C(=N\\O)c3c(SCc4ccccc4)sc(C(=O)N4CCOCC4)c3C2)cc1", "note": "(stereo not shown) [Example A1.13, (3-(Benzylthio)-4-(hydroxyimino)-6-(4-methoxyphenyl)-4,5,6,7tetrahydrobenzo[c]thiophen-1-yl)(morpholino)methanone]", "values": [{"measurement": "reduction of B16 metastatic load in the lungs of irradiated mice vs vehicle", "result": "did not show a substantial decrease"}]}
